# Measurements: patent publication US12062444B2, “Methods and compositions related to triple-negative breast cancer” (THE UNIVERSITY OF CHICAGO, priority 2017, dated 2024)
# Entries after “also recorded” stand apart in the source; their conditions may differ.
# Assays:
# GR LBD = target: T1, GR LBD (Homo sapiens, UniProt P04150); experiment: Ligand titration assay via fluorescence polarimetry (displacement of F-Dex); type: binding
# T1 construct: The wild-type GR-LBD (amino acid residues 522-777) was cloned into a pFASTBAC plasmid; 6X-His (TEV-cleavable) (cleaved yes); made in house; host or cells: SF9 insect cells (baculovirus, pFASTBAC)
# T1 sequence (P04150 522-777): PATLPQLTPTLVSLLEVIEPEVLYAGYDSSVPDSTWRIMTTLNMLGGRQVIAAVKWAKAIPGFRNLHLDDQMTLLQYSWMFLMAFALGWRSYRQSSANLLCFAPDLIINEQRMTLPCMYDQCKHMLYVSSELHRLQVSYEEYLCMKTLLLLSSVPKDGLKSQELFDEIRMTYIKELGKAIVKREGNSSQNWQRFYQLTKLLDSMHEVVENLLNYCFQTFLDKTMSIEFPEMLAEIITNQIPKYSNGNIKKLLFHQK
# Protocol: SF9 insect cells were transfected with recombinant bacmid and virus (collected after 6 days) was amplified prior to protein expression. […] GR-LBD was purified first using Ni-affinity chromatography followed by overnight dialysis with TEV protease to remove the His tag. Extensive dialysis into 20 mM TRIS pH 8.0, 500 mM NaCl, 5% glycerol, 0.1% CHAPS, 0.25 mM TCEP was performed to obtain non-ligand-bound GR LBD. […] The purified proteins were concentrated to 5 mg/ml, flash frozen in 50 ul aliquots in N2(l), and stored at −80C.
# GR LBD was diluted in assay buffer (20 mM TRIS pH 7.5, 50 mM NaCl, 0.25 mM TCEP) to a concentration of 50 nM. […] Triplicate FP measurements were scaled to maximal FP and averaged for each ligand concentration.
# [1] = test system: GR-regulated gene expression in MDA-MB-231 cells; experiment: Gene expression microarray and analysis; type: cell-based, human
# Protocol: MDA-MB-231 cells were grown to 80% confluence in 15-cm dishes in DMEM with 10% FBS. […] Following compound exposure, cells were washed in PBS, and lysed in RNA lysis buffer (Qiagen) overnight at -80° C. RNA extraction, with accompanying DNase treatment, was performed using the RNeasy kit (Qiagen) following the manufacturer's protocol. […] The University of Chicago Genomics Core facility carried out the reverse transcription on the samples, followed by microarray using the Affymetrix Human U133 Plus 2.0 platform. […] A principal components analysis (PCA) was performed using the prcomp function in R (Q-mode PCA using singular value decomposition). […] Dex-regulated genes were overlapped with a list of n=5,170 differentially-expressed tumor-derived genes (in the same direction) from GR-high versus GR-low BCs (52). Ingenuity Pathway Analysis (Qiagen) of the n=462 patient-relevant and antagonist-inhibited genes was performed to obtain Activation Z-scores of the most significant Diseases and Biofunctions (cell functions).
# [2] = test system: GR chromatin association in MDA-MB-231 cells; experiment: GR ChIP-sequencing and analysis; type: cell-based, human; details: co-treatment with Dex
# Protocol: MDA-MB-231 cells were grown to 80% confluence in 15-cm dishes in DMEM with 10% FBS, followed by 48h in DMEM supplemented with 2.5% charcoal-stripped FBS. […] Cells were cross-linked with 1% formaldehyde, quenched with glycine (final concentration of […]), and harvested. After cell lysis with ChIP lysis buffer (Magna ChIP A Chromatin Immunoprecipitation Kit, EMD Millipore), cells were sonicated to achieve the majority of DNA fragments between 200-400 bp. Input samples were preserved at -80° C. […] Following manufacturer's protocol, chromatin was eluted from GR ChIP and input samples. Library build and sequencing was performed at the University of Oregon Genomics Core facility using the NextSeq 500 sequencer. Quality control on sequences and adapter sequencing trimming was performed using Kapa Biosystems Illumina Library Quantification Kit. ChIP-seq analysis was carried out using the Galaxy platform (usegalaxy.org (111)). […] GR peaks for each treatment were normalized to its own input control sample. […] Selected GR peak locations in hg19 and GR peak maps were also individually analyzed using Integrative Genomics Viewer, IGV (Broad Institute (116)).
# [3] = mifepristone 300 mg/day before weekly nab-paclitaxel, BC patients; cited from earlier work
# apoptotic cells = details: RU486 in conjunction with dexamethasone, compared to paclitaxel alone; cited from earlier work
# tumor cell survival = details: in vitro and in vivo; cited from earlier work
structure (smiles),measurement,setting,value
"CC#C[C@]1(O)CC[C@H]2[C@@H]3CCC4=CC(=O)CCC4=C3[C@@H](c3ccc(N(C)C)cc3)C[C@@]21C [Mif, mifepristone]",Displacement of fluorescently-labeled Dex (F-Dex) from the GR LBD,GR LBD,low nM affinities
same,Fit of FP dose response curve (half-maximal FP signal),GR LBD,able to fit data
same,Genes for which both GR modulators antagonized GR induction or repression by at least 25%,[1]; 100 nM with 100 nM Dex,"3,066"
same,Antagonized GR-regulated genes shared with the other antagonist,"[1]; C297 versus Mif, 100 nM",68%
same,Pathway activation Z-score (Ingenuity Pathway Analysis) relative to Dex,"[1]; n=462 genes, cell survival, invasion, EMT pathways, FIG. 13",relative dampening of Z-score magnitude
same,Relative GR promoter enrichment (+/−3kb),[2],decrease in relative GR promoter enrichment
same,Safety and tolerability of the combination with nab-paclitaxel,[3],safe and tolerable; also recorded: potential for increased cytopenias
same,Number of apoptotic cells induced by paclitaxel,apoptotic cells,did not increase the number of apoptotic cells
same,Paclitaxel cytotoxicity under GC activation,tumor cell survival,increase paclitaxel cytotoxicity both in vitro and in vivo
